The text below walks through data of ChEMBL document CHEMBL1151893, “Synthesis of analogs of forodesine HCl, a human purine nucleoside phosphorylase inhibitor-Part I” (Bioorg Med Chem Lett, 2009).

SMILES strings stand for the structures.

This test concerns the target T1, Purine nucleoside phosphorylase (Homo sapiens, UniProt P00491).
T1 sequence (P00491 whole entry): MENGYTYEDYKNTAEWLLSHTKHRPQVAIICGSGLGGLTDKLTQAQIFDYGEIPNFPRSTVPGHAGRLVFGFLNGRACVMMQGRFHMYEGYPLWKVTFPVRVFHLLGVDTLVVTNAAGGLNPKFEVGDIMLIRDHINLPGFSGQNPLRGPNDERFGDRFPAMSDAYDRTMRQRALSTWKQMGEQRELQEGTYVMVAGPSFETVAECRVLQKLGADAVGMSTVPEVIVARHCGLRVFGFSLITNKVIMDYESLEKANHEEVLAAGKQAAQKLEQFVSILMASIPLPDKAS
Put plainly: Inhibition of human purine nucleoside phosphorylase.
As to `O=c1[nH]cnc2c([C@@]3(CO)NC[C@H](O)[C@@H]3O)c[nH]c12`, the 50% inhibitory concentration (IC50) – broadly, the point on the concentration scale where inhibition reaches its midpoint – is 100 nM. In other words, the sub-micromolar range.

Compound `O=c1[nH]cnc2cc([C@@H]3N[C@H](CO)[C@@H](O)[C@H]3O)[nH]c12` registered a concentration for half-maximal inhibition (IC50) of 100 nM.

The compound `O=C(O)c1[nH]c2c(=O)[nH]cnc2c1[C@@H]1N[C@H](CO)[C@@H](O)[C@H]1O` yielded an IC50 of 100 nM. This lies in the sub-micromolar range.
